According to patent publication US20250354986A1, “AFFINITY ENCODED OSCILLATOR ARRAYS, METHODS, AND RELATED ASPECTS FOR MEASURING MOLECULAR BINDING KINETICS” (ARIZONA BOARD OF REGENTS ON BEHALF OF ARIZONA STATE …, priority 2024, published 2025):
Where a name gives a salt, the structure may show the parent alone.

Experiments:
[1] = test system: K082 virions with no GPCR displayed on the envelope; test: Control nano-oscillators: K082 virion with no GPCR, or AuNP only; conditions: K082 virion with no GPCR displayed, or AuNP only without virion
[2] = stated without a test; cited from earlier work
decoding sequence 1 = conditions: for averaged equilibrium affinity constant (KA): first barcode group hybridized with its DNA decoding sequence, 37 individual nano-oscillators per probe; for Median of amplitude change for association: group 1 barcode nano-oscillators, hybridization signal
Experimental: (§1) To enable affinity-based barcoding, it is important to ensure nanoarrays are addressable by distinct affinities induced by different nucleotides mismatches. […] Perfectly matched, two and three-nucleotide mismatched complementary single DNA strains were used as barcode sequences on the nanocomplexes. Attributed to the charge-sensitive detection capability of nano-oscillators, hybridization of the charge-rich decoding DNA onto the nano-oscillators were recorded in real-time, enabling the calculation of hybridization affinities.
(§2) In FIG. 8, for each kind of barcode sequence, 37 individual nano-oscillators were measured for statistical study.
(§3) The second step of the measurement is decoding, which identifies the type of GPCRs on individual nano-oscillators, and was achieved by sequentially measuring the binding affinity of all decoding sequences. Each round of decoding flowed 50 nM of a specific readout sequence to hybridize with the barcodes on the nano-oscillator for 550 seconds, followed by buffer washing to dissociate the readout sequence for a duration of 250 seconds. Conducting the ligand screening before decoding can prevent potential issue of saturated oscillation amplitude change that may arise from excessively high negatively charged nano-oscillators after hybridization with the decoding sequence. Throughout all experiments, the injected sample was driven by a syringe pump and flowed onto the upper right portion of the field-of-view to minimize mass transport issues.
(§4) After recording the images, a region of interest (ROI) was selected on each particle (covering the parabolic tail), and the mean intensity within the ROI was calculated as the plasmonic intensity. An adjacent region with the same size was selected as the reference region, and its intensity was used to remove common noise from the ROI. The oscillation amplitude was obtained in every second using fast Fourier transform (FFT). The FFT intensity at the oscillation frequency was then plotted against time to illustrate both the binding trend and decoding process. Response curve fitting and calculation of binding kinetic constants were conducted using Scrubber (BioLogic Software). All data were visualized using Origin and MATLAB.

decoding sequence 2 = conditions: for Median of amplitude change for association: group 2 barcode nano-oscillators, hybridization signal; for averaged equilibrium affinity constant (KA): second barcode group hybridized with its DNA decoding sequence, 37 individual nano-oscillators per probe
Experimental: as §1, §2, §3, §4

With `CC(C)NCC(O)COc1cccc2ccccc12` (centres unmarked) [Propranolol, Propranolol hydrochloride] the “oscillation amplitude response of control nano-oscillators to ligand” value [1] was “not obvious responding”.

In the case of Tocrifluor, the “charge at pH 7.4” value [2] is listed as “neutral”.

In the case of “biotin-(CH2)6-5′-ACAATACCTCGGCCCTTCTC-3′ [barcode 1 (group 1)]”, the “averaged equilibrium affinity constant (KA)” value (decoding sequence 1) is reported as “(8.1±1.1)×10^8 M^−1” and the “Median of amplitude change for association” value (“Median of amplitude change” for short) (decoding sequence 1) is reported as 9.7 nm.

For “biotin-(CH2)6-5′-ACACTACCTCAGCCCTCCTC-3′ [barcode 3 (group 1)]”, the “averaged equilibrium affinity constant (KA)” value (decoding sequence 1) was “(5.9±0.82)×10^6 M^−1” and the “Median of amplitude change” value (decoding sequence 1) was 7.5 nm.

For “biotin-(CH2)6-5′-ACACTACCTCAGCCCTCCTC-3′ [barcode 3 (group 2)]”, the “Median of amplitude change” value (decoding sequence 2) was 7.2 nm and the “averaged equilibrium affinity constant (KA)” value (decoding sequence 2) was “(2.0±0.78)×10^6 M^−1”.

In the case of “biotin-(CH2)6-5′-ACACTACCTCGGCCCTCCTC-3′ [barcode 2 (group 1)]”, the “averaged equilibrium affinity constant (KA)” value (decoding sequence 1) is reported as “(5.3±0.74)×10^7 M^−1” and the “Median of amplitude change” value (decoding sequence 1) is reported as 9.6 nm.

With “biotin-(CH2)6-5′-GAGTTACTACAGACCATCGT-3′ [barcode 2 (group 2)]” the “Median of amplitude change” value (decoding sequence 2) was 10.9 nm and the “averaged equilibrium affinity constant (KA)” value (decoding sequence 2) was “(6.5±1.1)×10^7 M^−1”.

In the case of “biotin-(CH2)6-5′-GAGTTGCTACAGACCTTCGT-3′ [barcode 1 (group 2)]”, the “Median of amplitude change” value (decoding sequence 2) is reported as 11.6 nm and the “averaged equilibrium affinity constant (KA)” value (decoding sequence 2) is reported as “(7.1±0.98)×10^8 M^−1”.
